Test results taken from patent US11566007B2, “Ras inhibitors” (Revolution Medicines, Inc., priority 2019, dated 2023).
Where two headings read alike, the source gives them in different places.

Key:
[1] = biological target: KRAS Q61H (Homo sapiens (Human), UniProt P01116+P62937, Q61H); assay: Ras-Raf (BRAF RBD) disruption / FRET / MOA assay, KRAS Q61H; format: biochemical
Method: The purpose of this biochemical assay is to measure the ability of test compounds to facilitate ternary complex formation between a nucleotide-loaded Ras isoform and cyclophilin A; the resulting ternary complex disrupts binding to a BRAF^RBD construct, inhibiting Ras signaling through a RAF effector.
(§1) […]. Compound is present in plate wells as a 10-point 3-fold dilution series starting at a final concentration of 30 μM. After incubation at 25° C. for 3 hours, a mixture of Anti-His Eu-W1024 and anti-GST allophycocyanin is then added to assay sample wells at final concentrations of 10 nM and 50 nM, respectively, and the reaction incubated for an additional 1.5 hours. […] Compounds that facilitate disruption of a Ras:RAF complex are identified as those eliciting a decrease in the TR-FRET ratio relative to DMSO control wells.
Note—The following protocol describes a procedure for monitoring disruption of K-Ras G12C (GMP-PNP) binding to BRAF^RBD by a compound of the invention. This protocol may also be executed substituting other Ras proteins or nucleotides.
The purpose of this biochemical assay was to measure the ability of test compounds to facilitate ternary complex formation between a nucleotide-loaded K-Ras isoform and Cyclophilin A; the resulting ternary complex disrupts binding to a BRAF^RBD construct, inhibiting K-Ras signaling through a RAF effector. Data is reported as IC50 values.
as §1, with “Compound was” for “Compound is”, “allophycocyanin was” for “allophycocyanin is”, “a K-Ras:RAF” for “a Ras:RAF”, “complex were” for “complex are”

[2] = tested on: NCI-H358 (K-Ras G12C); assay: CellTiter-Glo cell viability assay, NCI-H358; format: cell-based, human; details: NCI-H358, 5-day treatment, class symbols, read-out: Additional H358 Cell Viability assay data (K-Ras G12C, IC50)
Summary of the method: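 Viability measured by CellTiter-Glo luminescence on day 5 following direct addition of compound to plated cells. Values expressed as percent of mean DMSO signal; curves fitted with a four-parameter logistic model.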

[3] = biological target: KRAS G12S (Homo sapiens (Human), UniProt P01116+P62937, G12S); assay: Ras-Raf (BRAF RBD) disruption / FRET / MOA assay, KRAS G12S; format: biochemical
Summary of the method: (§2)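 Compound-driven ternary complex of nucleotide-loaded Ras with cyclophilin A, disrupting BRAF RBD binding. 10-point 3-fold dilution from 30 μM final, 3 h at 25° C, then anti-His Eu-W1024 (10 nM) and anti-GST allophycocyanin (50 nM) for 1.5 h. IC50 from TR-FRET ratio decrease versus DMSO.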

[4] = biological target: KRAS G12D (Homo sapiens (Human), UniProt P01116+P62937, G12D); assay: Ras-Raf (BRAF RBD) disruption / FRET / MOA assay, KRAS G12D; format: biochemical
Summary of the method: as §2

[5] = tested on: NCI-H358 cells (K-Ras G12C); assay: Potency assay: pERK in NCI-H358 cells; format: cell-based, human; details: H358 KRAS G12C, read-out: pERK EC50
Summary of the method: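 4 h cpd, 37 °C; 10-pt 3-fold series, 10 mM DMSO top stock, duplicates. Readout pERK: AlphaLISA SureFire Ultra or In-Cell Western (IR-800CW secondary, DRAQ5 DNA stain). IC50, 4-PL fit vs log conc.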

[6] = Ras-Raf disruption/FRET/MOA assay; class symbols; read-out: KRAS Q61H FRET data IC50
[7] = Ras-Raf disruption/FRET/MOA assay; class symbols; read-out: KRAS G12S FRET data IC50
[8] = Ras-Raf disruption/FRET/MOA assay; class symbols; read-out: KRAS G12D FRET data IC50

Sequence of KRAS Q61H (P01116-2 other isoform, or with tags, fused parts or gaps Q61H): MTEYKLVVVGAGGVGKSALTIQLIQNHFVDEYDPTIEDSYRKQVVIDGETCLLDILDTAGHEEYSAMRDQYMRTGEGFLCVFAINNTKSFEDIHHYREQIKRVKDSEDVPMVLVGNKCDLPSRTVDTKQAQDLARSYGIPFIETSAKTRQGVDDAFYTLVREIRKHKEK
Sequence of KRAS Q61H (P62937 whole entry, canonical isoform): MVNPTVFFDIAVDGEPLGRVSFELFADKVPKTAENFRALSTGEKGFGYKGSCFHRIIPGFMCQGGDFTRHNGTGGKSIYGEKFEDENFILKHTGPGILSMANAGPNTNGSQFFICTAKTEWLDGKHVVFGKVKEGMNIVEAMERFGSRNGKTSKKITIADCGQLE
Sequence of KRAS G12S (P01116-2 other isoform, or with tags, fused parts or gaps G12S): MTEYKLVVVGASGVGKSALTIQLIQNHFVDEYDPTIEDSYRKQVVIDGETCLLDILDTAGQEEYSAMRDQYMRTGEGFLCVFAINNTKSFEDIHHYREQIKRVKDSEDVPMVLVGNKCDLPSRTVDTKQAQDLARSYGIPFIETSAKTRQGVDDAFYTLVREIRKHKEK
Sequence of KRAS G12S (P62937 whole entry): as the sequence (P62937 whole entry, canonical isoform) above
Sequence of KRAS G12D (P01116-2 other isoform, or with tags, fused parts or gaps G12D): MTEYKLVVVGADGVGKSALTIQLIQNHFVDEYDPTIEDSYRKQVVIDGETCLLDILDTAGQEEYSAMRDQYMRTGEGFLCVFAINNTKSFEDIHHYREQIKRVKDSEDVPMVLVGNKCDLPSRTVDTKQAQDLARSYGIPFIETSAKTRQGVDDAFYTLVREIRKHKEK
Sequence of KRAS G12D (P62937 whole entry): as the sequence (P62937 whole entry, canonical isoform) above

SMILES | IC50 ([1]; read-out: KRAS Q61H FRET data IC50; Ras-Raf disruption/FRET/MOA assay; class symbols) [µM] | IC50 ([2]; Homo sapiens, NCI-H358, 120 h) [µM] | IC50 ([3]; read-out: KRAS G12S FRET data IC50; Ras-Raf disruption/FRET/MOA assay; class symbols) [µM] | IC50 ([4]; read-out: KRAS G12D FRET data IC50; Ras-Raf disruption/FRET/MOA assay; class symbols) [µM] | EC50 ([5]; Homo sapiens, NCI-H358) [µM] | IC50 [1, 6] [µM] | IC50 [2] [µM] | IC50 [3, 7] [µM] | IC50 [4, 8] [µM] | EC50 [5] [µM]
C=CC(=O)N1CC[C@H](C(=O)N(C)[C@H](C(=O)N[C@H]2Cc3cc(sn3)-c3ccc4c(c3)c(c(-c3cccnc3[C@H](C)OC)n4CC)CC(C)(C)COC(=O)[C@@H]3CCCN(N3)C2=O)C(C)C)C1 (atropisomer, axis not shown) [Example A277] | 0.1 to 1 | 0.1 to 1 | 1 to 10 | > 10 | < 5 |  |  |  |  | 
C=CC(=O)N1CC[C@H](C(=O)N(C)[C@H](C(=O)N[C@H]2CC3=NC=C(O3)c3ccc4c(c3)c(c(-c3cccnc3[C@H](C)OC)n4CC)CC(C)(C)COC(=O)[C@@H]3CCCN(N3)C2=O)C(C)C)C1 (atropisomer, axis not shown) [Example A331] |  |  |  |  |  | 1 to 10 | 0.1 to 1 | 1 to 10 | > 10 | < 5
CCn1c(-c2cccnc2[C@H](C)OC)c2c3cc(ccc31)-c1cccc(c1)C[C@H](NC(=O)[C@H](C(C)C)N(C)C(=O)[C@H]1CCN(C(=O)C#CC(C)(C)N(C)C)C1)C(=O)N1CCC[C@H](N1)C(=O)OCC(C)(C)C2 (atropisomer, axis not shown) [Example A339] |  |  |  |  |  | 1 to 10 | < 0.01 | 1 to 10 | > 10 | < 5
C=CC(=O)Nc1ncc(C(=O)N(C)[C@H](C(=O)N[C@H]2Cc3cccc(c3)-c3ccc4c(c3)c(c(-c3cccnc3[C@H](C)OC)n4CC)CC(C)(C)COC(=O)[C@@H]3CCCN(N3)C2=O)C(C)C)n1C (atropisomer, axis not shown) [Example A475] |  |  |  |  |  | 0.1 to 1 |  | 1 to 10 | > 10 | < 5
C=CC(=O)N1CCN(C(=O)N(C)[C@H](C(=O)N[C@H]2Cc3nc(cs3)-c3ccc4c(c3)c(c(-c3cccnc3[C@H](C)OC)n4CC)CC(C)(C)COC(=O)[C@@H]3CCCN(N3)C2=O)C(C)C)CC1 (atropisomer, axis not shown) [Example A492] |  |  |  |  |  | 0.01 to 0.1 | < 0.01 | 0.01 to 0.1 | 0.1 to 1 | < 5
C=CC(=O)N1CCN(C(=O)N(C)[C@H](C(=O)N[C@H]2Cc3nc(cs3)-c3ccc4c(c3)c(c(-c3cccnc3[C@H](C)OC)n4CC)CC(C)(C)COC(=O)[C@@H]3CCCN(N3)C2=O)C(C)C)CC1 (atropisomer, axis not shown) [Example A493] |  |  |  |  |  | 0.01 to 0.1 | < 0.01 | 0.01 to 0.1 | 0.1 to 1 | < 5
C=CC(=O)N1CC[C@H](C(=O)N(C)[C@H](C(=O)N[C@H]2Cc3cc(CF)cc(c3)-c3ccc4c(c3)c(c(-c3cccnc3[C@H](C)OC)n4CC)CC(C)(C)COC(=O)[C@@H]3CCCN(N3)C2=O)C(C)C)C1 (atropisomer, axis not shown) [Example A504] |  |  |  |  |  | 0.1 to 1 | < 0.01 | 1 to 10 | 1 to 10 | < 5
C=CC(=O)N1CC[C@H](C(=O)N(C)[C@H](C(=O)N[C@H]2Cc3cc(CF)cc(c3)-c3ccc4c(c3)c(c(-c3cccnc3[C@H](C)OC)n4CC)CC(C)(C)COC(=O)[C@@H]3CCCN(N3)C2=O)C(C)C)C1 (atropisomer, axis not shown) [Example A505] |  |  |  |  |  | 0.1 to 1 | < 0.01 | 1 to 10 | 1 to 10 | < 5
C=CC(=O)N1CC[C@H](C(=O)N(C)[C@H](C(=O)N[C@H]2Cc3cc(O)cc(c3)-c3ccc4c(c3)c(c(-c3c(F)cccc3CCOC)n4CC)CC(C)(C)COC(=O)[C@@H]3CCCN(N3)C2=O)C(C)C)C1 [Example A025] |  |  |  |  |  | 1 to 10 |  | 1 to 10 | > 10 | 
C=CC(=O)N1CC[C@H](C(=O)N(C)[C@H](C(=O)N[C@H]2Cc3cc(O)cc(c3)-c3ccc4c(c3)c(c(-c3ccccc3N3CCOCC3)n4CC)CC(C)(C)COC(=O)[C@@H]3CCCN(N3)C2=O)C(C)C)C1 [Example A026] |  |  |  |  |  | 1 to 10 |  | > 10 | > 10 | 
C=CC(=O)N1CC[C@H](C(=O)N(C)[C@H](C(=O)N[C@H]2Cc3cc(O)cc(c3)-c3ccc4c(c3)c(c(-c3cccnc3)n4CC)CC(C)(C)COC(=O)[C@@H]3CCCN(N3)C2=O)C(C)C)C1 [Example A045] |  |  |  |  |  | 0.1 to 1 |  | 1 to 10 | > 10 | 
C=CC(=O)N1CC[C@H](C(=O)N(C)[C@H](C(=O)N[C@H]2Cc3cc(O)cc(c3)-c3ccc4c(c3)c(c(-c3ccc5c(c3)OCCN5C)n4CC)CC(C)(C)COC(=O)[C@@H]3CCCN(N3)C2=O)C(C)C)C1 [Example A050] |  |  |  |  |  | 1 to 10 |  | 1 to 10 | > 10 | 
C=CC(=O)N1CC[C@H](C(=O)N(C)[C@H](C(=O)N[C@H]2Cc3cc(O)cc(c3)-c3cc(F)c4c(c3)c(c(-c3ccccc3CCOC)n4CC)CC(C)(C)COC(=O)[C@@H]3CCCN(N3)C2=O)C(C)C)C1 [Example A053] |  |  |  |  |  | 1 to 10 |  |  | > 10 | 
C=CC(=O)N1CC[C@H](C(=O)N(C)[C@H](C(=O)N[C@H]2Cc3cc(O)cc(c3)-c3ccc4c(c3)c(c(-c3cccnc3N3CC(OC)C3)n4CC)CC(C)(C)COC(=O)[C@@H]3CCCN(N3)C2=O)C(C)C)C1 [Example A060] |  |  |  |  |  | 1 to 10 |  | 1 to 10 | > 10 | 
C=CC(=O)N1CC[C@H](C(=O)N(C)[C@H](C(=O)N[C@H]2Cc3cc(O)cc(c3)-c3ccc4c(c3)c(c(-c3cncnc3)n4CC)CC(C)(C)COC(=O)[C@@H]3CCCN(N3)C2=O)C(C)C)C1 [Example A061] |  |  |  |  |  | 1 to 10 |  | 1 to 10 | > 10 | 
C=CC(=O)N1CC[C@H](C(=O)N(C)[C@H](C(=O)N[C@H]2Cc3cc(O)cc(c3)-c3ccc4c(c3)c(c(C3=C(COC)CCCC3)n4CC)CC(C)(C)COC(=O)[C@@H]3CCCN(N3)C2=O)C(C)C)C1 [Example A064] |  |  |  |  |  | 0.1 to 1 |  | 0.1 to 1 | > 10 | 
C=CC(=O)N1CC[C@H](C(=O)N(C)[C@H](C(=O)N[C@H]2Cc3cc(O)cc(c3)-c3ccc4c(c3)c(c(-c3cncc(COC)c3)n4CC)CC(C)(C)COC(=O)[C@@H]3CCCN(N3)C2=O)C(C)C)C1 [Example A083] |  |  |  |  |  | 0.1 to 1 |  | 0.1 to 1 | > 10 | 
C=CC(=O)N1CC[C@H](C(=O)N(C)[C@H](C(=O)N[C@H]2Cc3cc(O)cc(c3)-c3ccc4c(c3)c(c(-c3cnn5c3[C@@H](OC)CCC5)n4CC)CC(C)(C)COC(=O)[C@@H]3CCCN(N3)C2=O)C(C)C)C1 [Example A333] |  |  |  |  |  | 0.01 to 0.1 | < 0.01 | 0.01 to 0.1 | 0.1 to 1 | < 5
C=CC(=O)N1CCN(C(=O)N(C)[C@H](C(=O)N[C@H]2Cc3cc(O)cc(c3)-c3ccc4c(c3)c(c(-c3cccnc3[C@H](C)OC)n4CC)CC(C)(C)COC(=O)[C@@H]3CCCN(N3)C2=O)C(C)C)CC1 [Example A338] |  |  |  |  |  | 0.01 to 0.1 | 0.01 to 0.1 | 0.01 to 0.1 | 0.1 to 1 | < 5
C=CC(=O)N1CCOC2(CCN(C(=O)N(C)[C@H](C(=O)N[C@H]3CN4CCC=C(C4)c4ccc5c(c4)c(c(-c4cccnc4[C@H](C)OC)n5CC)CC(C)(C)COC(=O)[C@@H]4CCCN(N4)C3=O)C(C)C)CC2)C1 [Example A563] |  |  |  |  |  | 1 to 10 | 0.1 to 1 | 1 to 10 | > 10 | < 5
